For orientation: Kd means the equilibrium constant for the complex coming apart. Higher therefore signals lower affinity.

Where two headings read alike, the source gives them in different places. No end group written: not given here.

The values below come from US9234005B2 (priority 2011, dated 2016).

Assay [1] addresses T1, PTPN4-PDZ (Homo sapiens, UniProt P29074, S499G).
T1 sequence (P29074 499-604 S499G): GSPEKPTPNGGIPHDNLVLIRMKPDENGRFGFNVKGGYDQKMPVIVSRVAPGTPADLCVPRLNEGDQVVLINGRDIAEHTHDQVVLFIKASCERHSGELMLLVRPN
Briefly: biochemical. In kind it is binding. Also noted: PTPN4-PDZ (residues G499-N604, G499 being a non-native residue due to the TEV cleavage site); GST (N, cleaved yes); made in house; host or cells: Escherichia coli BL21 (DE3) star.

A further assay has as its system U373MG astrocytoma cells. It is filed as cell-based, human.
Assay [2] deals with T1, PTPN4-PDZ. The assay is described as follows: biochemical.
Assay [3] deals with neuroblastoma cell line SK-N-SH. To be noted: cited from earlier work.
Setting [4] is: Kd for PTPN4-PDZ (dissociation constant, text).

LNLGNDPDRGTSI [GluD2-13, LNLGNDPDRGTSI]: binding at PTPN4-PDZ [1] (setting [4]) was put at a Kd of 128 µM.
Regarding “SNRRVYKKMPSIESDV-OH [GluN2A-16, SNRRVYKKMPSIESDV]”, in the assay on U373MG astrocytoma cells, the “cell death (% of dead cells among peptide loaded cells)” value is on record as 29% and the “increase of cell death compared to Cyto13-att” value was “two-fold increase”. At PTPN4-PDZ [1], the dissociation constant Kd was found to be 42 µM and the “fold increase in affinity for PTPN4-PDZ compared to Cyto13-att (Cyto-att)” value is reported as “four-fold increase”.
SWARVSKETPL [SEQ ID NO: 4, SWARVSKETPL] returned a Kd at PTPN4-PDZ [1] (Kd, affinity for PTPN4-PDZ) of 1.58 µM.
With SWEDRETEV [SEQ ID NO: 7, SWEDRETEV], the Kd at PTPN4-PDZ [2] was 3.88 µM.
Same read-out and setting: next, SWEERETEF [SEQ ID NO: 6, SWEERETEF]: 2.52 µM; SWEERETEV [SEQ ID NO: 3, SWEERETEV]: 1.35 µM.
SWELYKSEGDARL [DARL-13, SWELYKSEGDARL]: the Kd at PTPN4-PDZ [1] (Kd, affinity for PTPN4-PDZ) came to 1280 µM.
At PTPN4-PDZ [2], SWERRETEV [SEQ ID NO: 5, SWERRETEV] yielded a Kd of 2 µM.
As to SWESHKSGG [Cyto9-Δ], the “cell death (% of dead cells among peptide loaded cells)” value in the assay on U373MG astrocytoma cells was determined as 7%. The “interaction with PTPN4-PDZ, in words” value at PTPN4-PDZ [1] was “does not interact with PTPN4-PDZ”. Further, the “induction of cell death, in words” value in assay [3] was “do not”.
As for “SWESHKSGGETRL [Cyto13-att, SWESHKSGGETRL]”, the “cell death (% of dead cells among peptide loaded cells)” value in the assay with U373MG astrocytoma cells is “more than 14%”. Binding on PTPN4-PDZ [1] (Kd, affinity for PTPN4-PDZ) was characterised by a dissociation constant (Kd) of 157 µM. Also, in assay [3], the “induction of cell death, in words” value is “induces cell death”.
In the case of “SWESHKSGGQTRL [Cyto13-vir, SWESHKSGGQTRL]”, the “cell death (% of dead cells among peptide loaded cells)” value in the assay with U373MG astrocytoma cells amounted to 8%. The “fold difference in Kd, Cyto13-vir versus Cyto13-att” value at PTPN4-PDZ [1] is given as 4 fold. Besides, the “ΔΔG0=RT ln(Kd(Cyto13-vir)/Kd(Cyto13-att))” value at PTPN4-PDZ [1] is recorded as 0.76 kcal·mol^−1. Also, the Kd at PTPN4-PDZ [1] (setting [4]) was 560 µM; at PTPN4-PDZ [1] (Kd, affinity for PTPN4-PDZ), 568 µM. In addition, the “induction of cell death, in words” value in assay [3] is given as “do not”.
As for SWESYRSGGEIRL [EIRL-13, SWESYRSGGEIRL], the “interaction with PTPN4-PDZ, in words” value on PTPN4-PDZ [1] is recorded as “low affinity”. Also, on PTPN4-PDZ [1] (Kd, affinity for PTPN4-PDZ), binding was characterised by a dissociation constant (Kd) of 1170 µM.
On to shepherdin, for which the “glioblastoma death, in words” value in the assay on U373MG astrocytoma cells was “in a range similar to those obtained with Cyto13-att”.
